This data set can be described thus: Calcium precipitation on mixing CPP-ACP and sodium bicarbonate; calcium retained on filter by Atomic Absorption. Format: physicochemical, human. As for the experimental part: The in vivo test was done to first determine the release of CPP-ACP. A five person panel chewed a gum containing 1% CPP-ACP. […] CPP-ACP and sodium bicarbonate at these concentration were incubated in a 30 ml pooled human saliva with moderate shaking at 37° C. for 3 minutes to test precipitation upon consumption of the gum and at 1 hour to show how longer contact time would precipitate calcium carbonate. The resultant pH of the incubation solution was approximately 7. The solution was filtered, the retentate was rinsed with deionized H2O to remove any soluble calcium and the result was analyzed for calcium content by Atomic Absorption analysis. As a control an aqueous solution of 30 g of a 0.3% CPP-ACP solution was pass through the filter paper.

Structures are written as SMILES.

As to `O=C([O-])O.[Na+]` [NaHCO3, sodium bicarbonate], the Calcium retained was 1.700 mg (30 g of saliva stored at 37° C. for 3 minutes); 1.7 mg (30 g of saliva stored at 37° C. for 3 minutes, listed as sodium bicarbonate); 1.600 mg (30 g of saliva stored at 37° C. for 1 hour).

Source of the values: patent publication US6846500B1, “Oral care chewing gums and method of use” (Cadbury Adams USA LLC, priority 1999, dated 2005).
